Measured values: patent US7678773B2, “Salts of avermectins substituted in the 4″-position and having pesticidal properties” (Merial Limited, priority 2001, dated 2010)
Like-named read-outs stand apart in the source and are kept apart here.

What was measured:
Type in all cases: in vivo
Spodoptera littoralis = test: Example B1: Action against Spodoptera littoralis (sprayed soybean plants); details: 72 h, read-out: reduction in the pest population (% activity)
Procedure: Young soybean plants are sprayed with an aqueous emulsion spray mixture comprising 12.5 ppm of test compound and, after the spray-coating has dried, the plants are populated with 10 caterpillars of Spodoptera littoralis in the first stage and then placed in a plastics container. 3 days later, the percentage reduction in population and the percentage reduction in feeding damage (% activity) are determined by comparing the number of dead caterpillars and the feeding damage on the treated plants with that on untreated plants.

Diabrotica balteata = test: Example B6: Action against Diabrotica balteata (sprayed maize seedlings); details: 144 h, read-out: reduction in the pest population (% activity)
Procedure: Maize seedlings are sprayed with an aqueous emulsion spray mixture comprising 12.5 ppm of the test compound and, after the spray-coating has dried, the maize seedlings are populated with 10 Diabrotica balteata larvae in the second stage and then placed in a plastics container. 6 days later, the percentage reduction in population (% activity) is determined by comparing the number of dead larvae on the treated plants with that on untreated plants.

Plutella xylostella = test: Example B4: Action against Plutella xylostella caterpillars (sprayed cabbage plants); details: 72 h, read-out: reduction in the pest population (% activity)
Procedure: Young cabbage plants are sprayed with an aqueous emulsion spray mixture comprising 12.5 ppm of test compound. After the spray-coating has dried, the cabbage plants are populated with 10 caterpillars of Plutella xylostella in the first stage and placed in a plastics container. Evaluation is made 3 days later. The percentage reduction in population and the percentage reduction in feeding damage (% activity) are determined by comparing the number of dead caterpillars and the feeding damage on the treated plants with that on the untreated plants.

Tetranychus urticae = test: Example B7: Action against Tetranychus urticae (sprayed bean plants); details: 144 h, read-out: reduction in the pest population (% activity)
Procedure: Young bean plants are populated with a mixed population of Tetranychus urticae and sprayed one day later with an aqueous emulsion spray mixture comprising 12.5 ppm of test compound. The plants are incubated for 6 days at 25° C. and subsequently evaluated. The percentage reduction in population (% activity) is determined by comparing the number of dead eggs, larvae and adults on the treated plants with that on untreated plants.

[1] = 12.5 ppm spray on young soybean plants, first-stage caterpillars, evaluated 3 days later vs untreated plants
[2] = 12.5 ppm spray on maize seedlings, second-stage larvae, evaluated 6 days later
[3] = 12.5 ppm spray on young cabbage plants, first-stage caterpillars, evaluated 3 days later
[4] = 12.5 ppm spray on young bean plants, mixed population, 6 days at 25° C.

Measured: inhibition at 12.5 ppm

O=C(O)c1cccc(F)c1 [B.41, 3-fluoro-benzoic acid]
> 80%: Spodoptera littoralis; [1] | Diabrotica balteata; [2] | Plutella xylostella; [3] | Tetranychus urticae; [4]

CC(C)(C)c1ccc(C(=O)O)cc1 [B.71, 4-tert-butyl-benzoic acid]
> 80%: Spodoptera littoralis; [1] | Diabrotica balteata; [2] | Plutella xylostella; [3] | Tetranychus urticae; [4]

Cc1ccc(C)c(C(=O)O)c1 [B.44, 2,5-dimethyl-benzoic acid]
> 80%: Spodoptera littoralis; [1] | Diabrotica balteata; [2] | Plutella xylostella; [3] | Tetranychus urticae; [4]

Cc1ccc(C(=O)O)cc1 [B.32, p-toluic acid]
> 80%: Spodoptera littoralis; [1] | Diabrotica balteata; [2] | Plutella xylostella; [3] | Tetranychus urticae; [4]

O=C(O)CCCOc1ccccc1 [B.70, 4-phenoxy-butyric acid]
> 80%: Spodoptera littoralis | Diabrotica balteata | Plutella xylostella | Tetranychus urticae

O=C(O)c1ccccc1-c1ccccc1 [B.11, 2-phenyl-benzoic acid]
> 80%: Spodoptera littoralis; [1] | Diabrotica balteata; [2] | Plutella xylostella; [3] | Tetranychus urticae; [4]

O=C(O)c1ccc(O)cc1O [B.82, 2,4-dihydroxy-benzoic acid]
> 80%: Spodoptera littoralis; [1] | Diabrotica balteata; [2] | Plutella xylostella; [3] | Tetranychus urticae; [4]
